The values that follow are results of earlier work, collected in patent US20240156829A1, “Stable Antiemetic Emulsions for Parenteral Administration” (Slayback Pharma LLC, priority 2022, published 2024).

Where a name gives a salt, the structure may show the parent alone.

For series [1] the following is noted: by light or oxygen or heavy metals.
For series [2] the following is noted: in vivo.

`O=C1c2cccc3c2[C@H](CCC3)CN1[C@@H]1CN2CCC1CC2` [Palonosetron hydrochloride, (3aS)-2-[(3S)-1-azabicyclo [2.2.2]octan-3-yl]-3a,4,5,6-tetrahydro-3H-benzo[de] isoquinolin-1-one; hydrochloride]: the “Stability in a liquid medium” value in series [1] was “easily oxidized and degraded”. The half-life in series [2] was 40 h. For the molecule `C[C@@H](O[C@H]1OCCN(Cc2n[nH]c(=O)[nH]2)[C@H]1c1ccc(F)cc1)c1cc(C(F)(F)F)cc(C(F)(F)F)c1` [Aprepitant, 5-([(2R, 3S)-2-((R)-1-[3,5-bis (trifluoromethyl)phenyl]ethoxy)-3-(4-fluoro-phenyl)morpholino]methyl)-1H-1,2,4-triazol-3(2H)-one], the solubility entry is “very poor”.
